target: T1, mineralocorticoid receptor (MR) (Homo sapiens, UniProt P08235); test: Cell-based Gal4 response element-controlled luciferase reporter assay (MR antagonism); conditions: Huh7 human liver cells transfected with Gal4 DBD-MR LBD fusion and luciferase reporter; block of agonist-induced activation; overnight incubation
T1 construct: expressed in transfected cells; host or cells: Huh7 (human liver cells)
T1 sequence (P08235 726-964 limits assumed): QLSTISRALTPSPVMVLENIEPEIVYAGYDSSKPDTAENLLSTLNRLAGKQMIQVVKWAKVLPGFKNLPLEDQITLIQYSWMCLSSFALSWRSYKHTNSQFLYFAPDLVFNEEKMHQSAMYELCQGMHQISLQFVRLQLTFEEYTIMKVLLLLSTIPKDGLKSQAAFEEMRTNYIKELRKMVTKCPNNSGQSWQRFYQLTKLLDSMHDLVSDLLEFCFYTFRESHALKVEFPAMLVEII
How it was run: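 Transiently transfected Huh7 cells were treated with agonist at 70-80% of full activation plus compounds for 18-20 h in medium with charcoal/dextran-stripped serum. Luciferase read-out was normalized to β-galactosidase (ONPG, OD420); IC50 came from curve fitting.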

Structure (SMILES) | IC50
N#Cc1ccc(N2N=C3c4ccc(C(=O)O)cc4OCC3C2c2ccc(F)cc2)cc1C(F)(F)F (racemic) [Example 54, 2-(4-cyano-3-(trifluoromethyl)phenyl)-3-(4-fluorophenyl)-2,3,3a,4-tetrahydrochromeno[4,3-c]pyrazole-7-carboxylic acid] | 973 nM
N#Cc1ccc(N2N=C3c4ccc(C(=O)NCCN5CCCC5)cc4CC[C@@H]3[C@@H]2c2ccc(F)cc2)cc1Cl (racemic) [Example 111, (±)-(3RS,3aRS)-2-(3-chloro-4-cyanophenyl)-3-(4-fluorophenyl)-N-(2-(pyrrolidin-1-yl)ethyl)-3,3a,4,5-tetrahydro-2H-benzo[g] indazole-7-carboxamide] | 57 nM
N#Cc1ccc(N2N=C3c4ccc(C(=O)O)cc4CCC3C2c2ccc(F)cc2)cc1Cl (racemic) [Example 2, 2-(3-chloro-4-cyanophenyl)-3-(4-fluorophenyl)-3,3a,4,5-tetrahydro-2H-benzo[g]indazole-7-carboxylic acid] | 223 nM
N#Cc1ccc(N2N=C3c4ccc(C(=O)O)cc4CCC3C2C2CCC2)cc1Cl (racemic) [Example 35, 2-(3-chloro-4-cyanophenyl)-3-cyclobutyl-3,3a,4,5-tetrahydro-2H-benzo[g] indazole-7-carboxylic acid] | 21 nM
COC(=O)c1ccc2c(c1)CCC1C2=NN(c2ccc(C#N)c(OCc3ccccc3)c2)C1C1CCCC1 (racemic) [Example 30, methyl 2-(3-(benzyloxy)-4-cyanophenyl)-3-cyclopentyl-3,3a,4,5-tetrahydro-2H-benzo[g]indazole-7-carboxylate] | 446 nM
Cc1cc(N2N=C3c4ccc(C(=O)O)cc4OC[C@@H]3[C@@H]2C2CCCC2)ccc1C#N (single isomer, unassigned) [Example 62] | 26 nM
Cc1cc(N2N=C3c4ccc(C(=O)O)cc4OC[C@H]3[C@H]2C2CCCC2)ccc1C#N (single isomer, unassigned) [Example 63] | > 1000 nM
N#Cc1ccc(N2N=C3c4ccc(C(=O)NCC(=O)NCC(=O)O)cc4CC[C@H]3[C@@H]2c2ccc(F)cc2)cc1Cl (racemic) [Example 108, (±)-2-(2-((3RS,3aSR)-2-(3-chloro-4-cyanophenyl)-3-(4-fluorophenyl)-3,3a,4,5-tetrahydro-2H-benzo[g]indazole-7-carboxamido)acetamido)acetic acid] | > 1000 nM
N#Cc1ccc(N2N=C3c4cc(C(=O)NCCN5CCCC5)ccc4CC[C@@H]3[C@@H]2c2ccc(F)cc2)cc1Cl (racemic) [Example 112, (±)-(3RS13aRS)-2-(3-chloro-4-cyanophenyl)-3-(4-fluorophenyl)-N-(2-(pyrrolidin-1-yl)ethyl)-3,3a,4,5-tetrahydro-2H-benzo[g]indazole-8-carboxamide] | 1550 nM
N#Cc1ccc(N2N=C3c4ccc(O)cc4CCC3C2c2ccc(F)cc2)cc1Cl (racemic) [Example 86, 2-chloro-4-(-3-(4-fluorophenyl)-7-hydroxy-3,3a,4,5-tetrahydrobenzo[g]indazol-2-yl)benzonitrile] | 86 nM
Cc1cc(N2N=C3c4ccc(O)cc4CC[C@H]3[C@H]2c2ccc(F)cc2)ccc1C#N [Example 82, 4-((3S,3aS)-3-(4-fluorophenyl)-7-hydroxy-3,3a,4,5-tetrahydrobenzo[g]indazol-2-yl)-2-methylbenzonitrile] | > 1000 nM
N#Cc1ccc(N2N=C3c4ccc(C(=O)O)cc4CC[C@H]3[C@H]2c2ccco2)cc1Cl [Example 45, (3S,3aS)-2-(3-chloro-4-cyanophenyl)-3-(2-furyl)-3,3a,4,5-tetrahydro-2H-benzo[g]indazole-7-carboxylic acid] | > 1000 nM
CC(C)C1C2COc3cc(C(=O)O)ccc3C2=NN1c1ccc(C#N)c(Cl)c1 (racemic) [Example 74, 2-(3-chloro-4-cyanophenyl)-3-isopropyl-2,3,3a,4-tetrahydrochromeno[4,3-c]pyrazole-7-carboxylic acid] | 588 nM
N#Cc1ccc(N2N=C3c4ccc(O)cc4CCC3C2c2ccc(F)cc2)cc1 (racemic) [Example 89, (±)-4-((3RS,3aRS)-3-(4-fluorophenyl)-7-hydroxy-3,3a,4,5-tetrahydrobenzo[g]indazol-2-yl)benzonitrile] | 705 nM
N#Cc1ccc(N2N=C3c4ccc(C(=O)O)cc4CC[C@@H]3[C@@H]2c2ccoc2)cc1Cl [Example 47, (3R,3aR)-2-(3-chloro-4-cyanophenyl)-3-(3-furyl)-3,3a,4,5-tetrahydro-2H-benzo[g]indazole-7-carboxylic acid] | 18 nM
C[S+]([O-])CCNC(=O)c1ccc2c(c1)CC[C@@H]1C2=NN(c2ccc(C#N)c(Cl)c2)[C@H]1c1ccc(F)cc1 (mixture of isomers) [Example 98, (±)-(3RS,3aSR)-2-(3-chloro-4-cyanophenyl)-3-(4-fluorophenyl)-N-(2-(methylsulfinyl)ethyl)-3,3a,4,5-tetrahydro-2H-benzo[g]indazole-7-carboxamide] | 13 nM
N#Cc1ccc(N2N=C3c4ccc(C(=O)O)cc4OC[C@H]3[C@H]2c2ccc(F)cc2)cc1 [Example 60, (3S,3aS)-2-(4-cyanophenyl)-3-(4-fluorophenyl)-2,3,3a,4-tetrahydrochromeno[4,3-c]pyrazole-7-carboxylic acid] | > 1000 nM
CS(=O)(=O)CCNC(=O)c1ccc2c(c1)CC[C@H]1C2=NN(c2ccc(C#N)c(Cl)c2)[C@H]1C1CCOCC1 (racemic) [Example 100] | 21 nM
N#Cc1ccc(N2N=C3c4ccc(C(=O)NCCO)cc4CC[C@@H]3[C@@H]2C2CCCC2)cc1Cl [Example 115, (3S,3aR)-2-(3-chloro-4-cyanophenyl)-3-cyclopentyl-N-(2-hydroxyethyl)-3,3a,4,5-tetrahydro-2H-benzo[g]indazole-7-carboxamide] | 3 nM
N#Cc1ccc(N2N=C3c4ccc(C(=O)O)cc4CCC3C2C2CCOCC2)cc1Cl (racemic) [Example 36, 2-(3-chloro-4-cyanophenyl)-3-(tetrahydro-2H-pyran-4-yl)-3,3a,4,5-tetrahydro-2H-benzo[g]indazole-7-carboxylic acid] | 127 nM
Cc1cc(N2N=C3c4ccc(C(=O)O)cc4OCC3C2C2CC2)ccc1C#N (racemic) [Example 75, 2-(4-cyano-3-methylphenyl)-3-cyclopropyl-2,3,3a,4-tetrahydrochromeno[4,3-c]pyrazole-7-carboxylic acid] | 711 nM
N#Cc1ccc(N2N=C3c4ccc(C(=O)O)cc4OCC3C2C2CCCC2)cc1Cl (racemic) [Example 64, 2-(3-chloro-4-cyanophenyl)-3-cyclopentyl-2,3,3a,4-tetrahydrochromeno[4,3-c]pyrazole-7-carboxylic acid] | 65 nM
CCN(CC)CCN(CCN(CC)CC)C(=O)c1ccc2c(c1)CC[C@H]1C2=NN(c2ccc(C#N)c(Cl)c2)[C@H]1c1ccc(F)cc1 (racemic) [Example 107, (±)-(3RS,3aRS)-2-(3-chloro-4-cyanophenyl)-N,N-bis(2-(diethylamino)ethyl)-3-(4-fluorophenyl)-3,3a,4,5-tetrahydro-2H-benzo[g]indazole-7-carboxamide bistrifluoroacetate] | 523 nM
N#Cc1ccc(N2N=C3c4ccc(C(=O)O)cc4CCC3C2C2CCOC2)cc1Cl (racemic) [Example 34, 2-(3-chloro-4-cyanophenyl)-3-((R)-tetrahydrofuran-3-yl)-3,3a,4,5-tetrahydro-2H-benzo[g]indazole-7-carboxylic acid and 2-(3-chloro-4-cyanophenyl)-3-((S)-tetrahydrofuran-3-yl)-3,3a,4,5-tetrahydro-2H-benzo[g]indazole-7-carboxylic acid] | 720 nM
N#Cc1ccc(N2N=C3c4ccc(C(=O)O)cc4CC[C@H]3[C@H]2c2ccc(F)cc2)cc1 [Example 12, (3S,3aS)-2-(4-cyanophenyl)-3-(4-fluorophenyl)-3,3a,4,5-tetrahydro-2H-benzo[g]indazole-7-carboxylic acid] | > 10000 nM
N#Cc1ccc(N2N=C3c4ccc(C(=O)O)cc4CCC3C2C2=CCCC2)cc1Cl (racemic) [Example 42, 2-(3-chloro-4-cyanophenyl)-3-cyclopentenyl-3,3a,4,5-tetrahydro-2H-benzo[g]indazole-7-carboxylic acid] | 15 nM
Cc1ccc([C@@H]2[C@@H]3CCc4cc(C(=O)O)ccc4C3=NN2c2ccc(C#N)c(Cl)c2)o1 [Example 41, (3S,3aS)-2-(3-chloro-4-cyanophenyl)-3-(5-methyl-2-furyl)-3,3a,4,5-tetrahydro-2H-benzo[g]indazole-7-carboxylic acid] | > 1000 nM
Cc1ccc(C2C3CCc4cc(C(=O)O)ccc4C3=NN2c2ccc(C#N)c(Cl)c2)o1 (racemic) [Example 39] | 22 nM
C[C@]12CCc3cc(C(=O)O)ccc3C1=NN(c1ccc(C#N)c(Cl)c1)[C@H]2C1CCCC1 [Example 94, (3S,3aR)-2-(3-chloro-4-cyanophenyl)-3-cyclopentyl-3a-methyl-3,3a,4,5-tetrahydro-2H-benzo[g]indazole-7-carboxylic acid] | 25 nM
CCOC(=O)c1ccc2c(c1)CCC1C2=NN(c2ccc(C#N)c(Cl)c2)C1c1ccc(F)cc1 (stereo not drawn) [Example 1, ethyl 2-(3-chloro-4-cyanophenyl)-3-(4-fluorophenyl)-3,3a,4,5-tetrahydro-2H-benzo[g]indazole-7-carboxylate] | 1070 nM

— patent publication US7781428B2 (Pfizer Inc., priority 2006, dated 2010)
